Mass density data for 4 compounds are collected here from the NIST ThermoML archive (doi:10.1016/j.fluid.2008.03.002).

As usually defined, the mass density is the mass of a sample divided by its volume.

A short description of data set [1]: xn = mol fraction of the nth substance listed. The note with it: 332.7 K, 101 kPa, Liquid.
For data set [2] the following is noted: 332.7 K; 101 kPa; Liquid.

Each structure is given as a SMILES string. Numbers after ± are expanded uncertainties.

Take `CC(C)CCO` [3-methylbutan-1-ol] + CCOC(C)=O: the mass density in data set [1] (x2 = 0) is given as 778.14 ± 0.37 kg/m3; in data set [1] (x2 = 0.0501), 780.94 ± 0.36 kg/m3; in data set [1] (x2 = 0.1087), 784.25 ± 0.36 kg/m3; in data set [1] (x2 = 0.1714), 788.1 ± 0.36 kg/m3; in data set [1] (x2 = 0.2296) it was 791.81 ± 0.35 kg/m3; in data set [1] (x2 = 0.29) it was 795.6 ± 0.35 kg/m3. The mass density in data set [1] (x2 = 0.3561) is listed as 799.89 ± 0.34 kg/m3; in data set [1] (x2 = 0.4088) it was 803.56 ± 0.34 kg/m3; in data set [1] (x2 = 0.4659), 807.59 ± 0.34 kg/m3; in data set [1] (x2 = 0.5339), 812.5 ± 0.33 kg/m3; in data set [1] (x2 = 0.5891) it was 816.6 ± 0.33 kg/m3; in data set [1] (x2 = 0.6597), 821.96 ± 0.32 kg/m3. Further, the mass density in data set [1] (x2 = 0.7088) came to 825.91 ± 0.31 kg/m3; in data set [1] (x2 = 0.7693), 830.72 ± 0.31 kg/m3; in data set [1] (x2 = 0.8286), 835.79 ± 0.3 kg/m3; in data set [1] (x2 = 0.8882), 840.96 ± 0.3 kg/m3; in data set [1] (x2 = 0.9488), 846.43 ± 0.29 kg/m3.
With `CC(C)CCO` [3-methylbutan-1-ol], in data set [2], the mass density is 778.14 ± 0.37 kg/m3.
On the same count and under the same terms, in the case of `CCOC(C)=O` [ethyl acetate] it was 851.36 ± 0.28 kg/m3.
As for `CCOC(C)=O` [ethyl acetate] + CC(C)CCO, the mass density in data set [1] (x1 = 1) is given as 851.36 ± 0.28 kg/m3.
